In the experiment the test system is HE cells. The experiment in a line: HE subculture with metabolic regulators, flow cytometry of hematopoietic output. Format: cell-based, human. The source says:
The RB9-CB1 human iPSC line (Woods, N.-B. et al. Brief report: efficient generation of hematopoietic precursors and progenitors from human pluripotent stem cell lines. Stem Cells 29, 1158-1164 (2011)) was co-cultured with mouse embryonic fibroblasts (MEFs, Millipore), passaged every six days and processed to form embryoid bodies (EBs) as described previously (Guibentif, C. et al. Single-Cell Analysis Identifies Distinct Stages of Human Endothelial to-Hematopoietic Transition. Cell Reports 19, 10-19 (2017)). The differentiation protocol used in this study was previously described (Ditadi, A. & Sturgeon, C. M. Directed differentiation of definitive hemogenic endothelium and hematopoietic progenitors from human pluripotent stem cells. Methods 101, 65-72 (2016)), however, small modifications were made to induce both primitive and definitive hematopoiesis, as indicated below and in FIG. 6, a. Newly-formed EBs were first kept in SFD medium supplemented with 1 ng/ml Activin A (on days 0-2) and 3 μM CHIR99021 (on day 2 only). At day 3, media was switched to “Day 3-SP34” medium supplemented with 1 ng/ml Activin A (on day 3 only) and 3 μM CHIR99021 (on day 3 only) until day 6. On day 6, media was replaced by “Day 6-SP34” medium, until day 8. In some experiments where indicated, to obtain a higher yield of HSC-like cells, EBs were kept until day 10: in this case, EBs were plated onto Matrigel (8 μg/cm2, Corning)-coated dishes on day 8 and kept until day 10. Media was changed every day, except on days 5 and 7. On day 8 or 10 (as indicated), EBs were singularized with 5-6 rounds of 5-minute incubations with TryPLE Express (Thermo Fisher Scientific). CD34^+ cells were selected using the human CD34 MicroBead kit (Miltenyi Biotec) and stained with CD34-FITC, CD73-PE, VECad-PerCPCy5.5, CD38-PC7, CD184-APC, CD45-AF700, CD43-APCH7, GPA-eF450, CD90-BV605 and the viability marker 7AAD in order to sort HE (CD34^+CD43^−CXCR4^−CD73^−CD90^+VECad^+), EHT (CD34^+CD43^intCXCR4^−CD73^−CD90^+VECad^+) and HSC-like (CD34^+CD43^+CD90^+CD38^−) cells, according to previously described markers (Guibentif, C. et al. Single-Cell Analysis Identifies Distinct Stages of Human Endothelial to-Hematopoietic Transition. Cell Reports 19, 10-19 (2017); Ditadi, A. et al. Human definitive haemogenic endothelium and arterial vascular endothelium represent distinct lineages. Nat Cell Biol 17, 580-591 (2015); and Choi, K.-D. et al. Identification of the Hemogenic Endothelial Progenitor and Its Direct Precursor in Human Pluripotent Stem Cell Differentiation Cultures. Cell Reports 2, 553-567 (2012)).
Sorted HE (40,000), EHT (30,000) and HSC-like (5-20,000) cells were plated onto Matrigel (16 μg/cm2, Corning)-coated 96-well flat bottom plates in HE medium with 1% penicillin-streptomycin and kept in a humidified incubator at 37° C., 5% C02, 4% 02 overnight. The following day (day 0), wells were washed twice with PBS and fresh HE medium was added, together with 2-DG (1 mM), UK5099 (10 μM), DCA (3 mM or 10 mM), TSA (60 nM), TCP (300 nM), ACSS2i (5 μM), C646 (10 μM), CP-640186 (5 μM) or Atorvastatin (0.5 μM), where indicated. Media was changed and drugs were added every 2 days and cells were kept in a humidified incubator at 37° C., 5% CO2, 20% O2 for 6-7 days. Pictures were taken using an Olympus IX70 microscope equipped with a CellSens DP72 camera and CellSens Standard 1.6 software (Olympus). For single cell subcultures, single HE cells were directly sorted with a BD FACSAriaIII onto OP9-DL1 stroma in flat-bottom 96-well plates with 120 μl OP9 medium (OptiMEM medium with Glutamax (Invitrogen) with 10% FCS, 1% penicillin-streptomycin solution (Thermo Fisher Scientific) and 1% 2-mercaptoethanol (Invitrogen)) with SCF, IL-6, IL-11, IGF1 and EPO, and with or without 10 μM UK, or 3 mM or 10 mM DCA. The cells were kept in a humidified incubator at 37° C., 5% CO2, 4% O2 and media was replaced every 4 days. […]
In general terms: In flow cytometry, cells or beads pass a laser one at a time.

The values below come from patent US20250129334A1, “LINEAGE SPECIFICATION DURING STEM CELL TRANSITION” (Amniotics AB, priority 2021, published 2025).

Take `O=C(O)C(Cl)Cl` [DCA, dichloroacetate]: the “decrease in CD43+GPA+ cells” value (day 6 of HE subculture, DCA 3 mM) was 50%. For the same compound, the “increase in CD43+CD45+ cells / cell output” value (day 6 of subculture, deriving from HE, DCA 3 mM or shRNA) came out at 80%.

On to `N#CC(=Cc1cn(-c2ccccc2)c2ccccc12)C(=O)O` [UK5099, 2-Cyano-3-(1-phenyl-1H-indol-3-yl)-2-propenoic acid], for which the “EdU incorporation (proliferation)” value (24 h pulse, days 1 and 2 of subculture, UK5099 10 μM, DCA 3 mM) is recorded as “no differences in proliferation”. In addition, where the note is “3 days subculture, UK5099 10 μM, DCA 3 mM”, the “frequency of HSC-like cells deriving from HE” value is “did not have an effect”. For the same compound, the “proliferation of CD45+ cells deriving from HE” value (CTV, UK5099 10 μM, DCA 3 mM) is given as “did not have an effect”. Moreover, the “proliferation of the GPA+ population deriving from HE” value (CTV, day 3, UK5099 10 μM, DCA 3 mM) is “did not observe any differences”. For the same compound, for the setting “day 3 of HE subculture, UK5099 10 μM, 1-AA 4 mM, DCA 3 mM, vs control”, the “CD43+GPA+ cell output” value is recorded as “striking increase”. Also, where the note is “day 6, UK5099 10 μM, 1-AA 4 mM”, the “levels of total CD43+ cells” value is “unchanged”. Also, under “day 6, deriving from HE, UK5099 10 μM”, the “decrease in CD43+CD45+ population” value came out at 2 fold.
